Test results reported in patent US8344146B2, “Inhibitor of DD-peptidase and its use as antibiotic or anticancer drug” (Narodowy Instytut Zdrowia Publicznego-Panstwowy Zaklad …, priority 2007, dated 2013).
Converted amounts (≈) assume the structure as drawn.

What was measured:
[1] = target: T1, DD-peptidase R39 (Actinomadura sp., UniProt P39045); experiment: DD-peptidase R39 activity inhibition (ID50); format: biochemical; conditions: DD-peptidase R39, purified inhibitor; read-out: ID50 (M), molar concentration of inhibitor which inhibits 50% of enzyme activity
T1 construct: extracellular DD-peptidase R39 produced by Actinomadura sp; R39; gift: Prof; Jean-Maria Ghuysen; host or cells: Actinomadura sp; R39 (natural producer, secreted)

[2] = target: T2, DD-peptidase R61 (Streptomyces sp., UniProt P15555); experiment: DD-peptidase R61 activity inhibition (ID50); format: biochemical; conditions: DD-peptidase R61, purified inhibitor; read-out: ID50 (M), molar concentration of inhibitor which inhibits 50% of enzyme activity
T2 construct: DD-peptidase R61 produced by Streptomyces sp; R61; gift: Prof; Jean-Maria Ghuysen; host or cells: Streptomyces sp; R61 (natural producer)

[3] = target: T1, DD-peptidase R39; experiment: Life of the inhibitor-enzyme complex, R39; format: biochemical, Actinomadura sp. R39
Description: (§1) The Life of the Inhibitor-Enzyme Complex was Also Determined.
(§2) The incubation was performed from several to several dozen hours of each enzyme and inhibitor (as described above). Next, the reaction mixture was added, and determinations were performed.

[4] = target: T2, DD-peptidase R61; experiment: Life of the inhibitor-enzyme complex, R61; format: biochemical, Streptomyces sp. R61
Description: as §1, §2

[5] = test system: class A β-lactamase (penicillinase, Penase); experiment: β-lactamase inhibitor activity, nitrocefin method; format: biochemical; conditions: 482 nm, 30 min preincubation at 37° C.
Description: Determination of β-Lactamase Inhibitor Activity Using the Nitrocefin Method (O'Callaghan et al. 1972)^2.
reagents used in the assay: 0.1 mM nitrocefin solution containing 0.5 mg nitrocefin (Glaxo), 0.5 cm^3 DMSO (Fluka), 9.5 cm^3 0.1 M PBS pH 7.0; class A β-lactamase (penicillinase, Penase, 5×10^6 IU/ml, Bacto).
20 mm^3 of the examined inhibitor in 0.1 M PBS pH 7.0 were supplemented with 10 mm^3 β-lactamase, incubated for 30 min. at 37° C. Next, 30 mm^3 of 0.1 mM nitrocefin solution were added, and 430 mm^3 of 0.1M PBS pH 7.0. The samples were incubated for 10 min. at 37° C. and evaluated spectrophotometrically at 482 nm. The molar extinction coefficient was 15000 M^−1·cm^−1.

[6] = test system: β-lactamase; experiment: Inhibitor stability in a β-lactamase environment; format: biochemical
Description: Determination of Inhibitor Stability in a β-Lactamase Environment.
A method of evaluation inhibitor stability was designed using a combination of the above two methods. An initial incubation of the inhibitor with β-lactamase was performed, and then the reagents for determining DD-peptidase activity inhibition were added. The absorbance of the experimental sample was 0.05, whereas for the control sample (DD-peptidase) it was 0.35. […] It is not hydrolysed by β-lactamase.

[7] = test system: Acinetobacter baumanii ATCC 19606; experiment: MIC, serial dilutions on solid media; format: cell-based; conditions: Acinetobacter baumannii, ATCC19606, MH II agar, 16 hours at 35° C., inhibitor fractions purified on ion-exchange column
Description: (§3) The antibacterial activity of the compound in question was determined using serial dilutions on solid media (MIC value determination) and using the spot-diffusion protocol. […] Standard bacterial strains used in the analysis:
(§4) A Petri dish was loaded with 0.25 ml of the sample in water and topped with MH II agar medium (Muller Hinton II) to 5 ml. The antibiotic concentration was 0.2 mg/ml medium. Additionally, a control without the antibiotic was made containing 5 ml of MH II. Using a densitometer, bacterial suspensions were made in NaCl solution containing 0.5 McF (10^8 CFU/ml), and subsequently dilutions thereof were made.
(§5) The following dilution series was made: • 10^4 CFU/ml NaCl for strains 6, 7, 8, 9 • 10^5 CFU/ml Nan for strains 1, 2, 3, 4, 5, 10, 11
(§6) After the medium set, 2 μl of bacterial suspension of each strain was inoculated onto the medium yielding 10^2 CFU/ml for strains 6, 7, 8, 9 and 10^3 CFU/ml for strains 1, 2, 3, 4, 5, 10, 11. Each suspension was loaded onto each plate. the incubation was performed for 16 hours at 35° C.

[8] = test system: Bordetella bronchiseptica ATCC 4617; experiment: MIC, serial dilutions on solid media; format: cell-based; conditions: ATCC4617, MH II agar, 16 hours at 35° C., inhibitor fractions purified on ion-exchange column
Description: as §3, §4, §5, §6

[9] = test system: Burkholderia cepacia ATCC 25416; experiment: MIC, serial dilutions on solid media; format: cell-based; conditions: ATCC25416, MH II agar, 16 hours at 35° C., inhibitor fractions purified on ion-exchange column
Description: as §3, §4, §5, §6

[10] = test system: Enterococcus faecalis ATCC 29219; experiment: MIC, serial dilutions on solid media; format: cell-based; conditions: ATCC29219, MH II agar, 16 hours at 35° C., inhibitor fractions purified on ion-exchange column
Description: as §3, §4, §5, §6

[11] = test system: Escherichia coli ATCC 25922; experiment: MIC, serial dilutions on solid media; format: cell-based; conditions: ATCC25922, MH II agar, 16 hours at 35° C., inhibitor fractions purified on ion-exchange column
Description: as §3, §4, §5, §6

[12] = test system: Escherichia coli NCTC 8196; experiment: MIC, serial dilutions on solid media; format: cell-based; conditions: NCTC8196, MH II agar, 16 hours at 35° C., inhibitor fractions purified on ion-exchange column
Description: as §3, §4, §5, §6

[13] = test system: Klebsiella pneumoniae ATCC 13883; experiment: MIC, serial dilutions on solid media; format: cell-based; conditions: ATCC13883, MH II agar, 16 hours at 35° C., inhibitor fractions purified on ion-exchange column
Description: as §3, §4, §5, §6

[14] = test system: Proteus vulgaris NCTC 4635; experiment: MIC, serial dilutions on solid media; format: cell-based; conditions: NCTC4635, MH II agar, 16 hours at 35° C., inhibitor fractions purified on ion-exchange column
Description: as §3, §4, §5, §6

[15] = test system: Staphylococcus aureus ATCC 6538P; experiment: MIC, serial dilutions on solid media; format: cell-based; conditions: ATCC6538P, MH II agar, 16 hours at 35° C., inhibitor fractions purified on ion-exchange column
Description: as §3, §4, §5, §6

[16] = test system: Staphylococcus aureus NCTC 4163; experiment: MIC, serial dilutions on solid media; format: cell-based; conditions: NCTC4163, MH II agar, 16 hours at 35° C., inhibitor fractions purified on ion-exchange column
Description: as §3, §4, §5, §6

[17] = test system: Stenotrophomonas maltophilia ATCC 13637; experiment: MIC, serial dilutions on solid media; format: cell-based; conditions: ATCC13637, MH II agar, 16 hours at 35° C., inhibitor fractions purified on ion-exchange column
Description: as §3, §4, §5, §6

[18] = test system: Bordetella bronchiseptica ATCC 4617; experiment: Spot-diffusion method, growth inhibition zones; format: cell-based; conditions: ATCC4617, 0.4 mg inhibitor per disc
Description: (§7) Inhibitor activity was also determined using the spot-diffusion method.
(§8) The analysis was performed using: Proteus vulgaris NCTC 4635, Bordetella bronchiseptica ATCC 4617, Stenotrophomonas maltophilia ATCC 13637. 24 bacterial cultures were used to make suspensions containing 0.2 McF, which was then diluted 100-fold. 0.1 ml of such a mixture was then placed on a dish with Muller-Hinton medium. Discs containing the examined inhibitor fractions were placed and incubated at 35° C. The determinations were carried out at 15 and 18 hours.
(§9) The following growth inhibition zones were obtained using 0.4 mg inhibitor per disc: […]

[19] = test system: Proteus vulgaris NCTC 4635; experiment: Spot-diffusion method, growth inhibition zones; format: cell-based; conditions: NCTC4635, 0.4 mg inhibitor per disc
Description: as §7, §8, §9

[20] = test system: Stenotrophomonas maltophilia ATCC 13637; experiment: Spot-diffusion method, growth inhibition zones; format: cell-based; conditions: ATCC13637, 0.4 mg inhibitor per disc
Description: as §7, §8, §9

[21] = test system: Candida albicans ATCC 10231; experiment: Antifungal activity analysis, disc on Sabourand medium; format: cell-based; conditions: discs with 1 mg, 35° C. for 24 h; inhibitor fractions following stage 2 of purification
Description: A Petri dish with solid Sabourand medium with 4% glucose was inoculated with a Candida albicans ATCC 10231 suspension, at 0.02 McF density. Tissue discs soaked in the inhibitor solution were then placed on the medium (1 mg). The incubation was performed at 35° C. for 24 h.

[22] = Inhibitor characteristics: solubility; format: physicochemical
Excerpt: • 1.) Solid yellow in colour. • 2.) Solubility. The inhibitor is soluble in PBS pH 7.2-8.0; soluble in an aqueous environment with low levels of K^+, Na^+. It also dissolves in methanol, DMSO, but degrades in these solvents.

T2 sequence (P15555 32-380): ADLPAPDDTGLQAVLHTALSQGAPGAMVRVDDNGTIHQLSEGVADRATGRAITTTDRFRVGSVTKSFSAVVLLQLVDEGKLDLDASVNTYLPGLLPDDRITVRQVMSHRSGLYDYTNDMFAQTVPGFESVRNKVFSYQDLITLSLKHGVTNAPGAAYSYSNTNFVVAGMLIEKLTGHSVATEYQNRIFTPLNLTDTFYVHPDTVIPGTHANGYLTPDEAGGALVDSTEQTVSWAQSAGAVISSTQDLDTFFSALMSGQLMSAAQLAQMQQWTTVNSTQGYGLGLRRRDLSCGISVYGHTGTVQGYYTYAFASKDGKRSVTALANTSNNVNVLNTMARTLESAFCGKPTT
T1 sequence (P39045 50-538): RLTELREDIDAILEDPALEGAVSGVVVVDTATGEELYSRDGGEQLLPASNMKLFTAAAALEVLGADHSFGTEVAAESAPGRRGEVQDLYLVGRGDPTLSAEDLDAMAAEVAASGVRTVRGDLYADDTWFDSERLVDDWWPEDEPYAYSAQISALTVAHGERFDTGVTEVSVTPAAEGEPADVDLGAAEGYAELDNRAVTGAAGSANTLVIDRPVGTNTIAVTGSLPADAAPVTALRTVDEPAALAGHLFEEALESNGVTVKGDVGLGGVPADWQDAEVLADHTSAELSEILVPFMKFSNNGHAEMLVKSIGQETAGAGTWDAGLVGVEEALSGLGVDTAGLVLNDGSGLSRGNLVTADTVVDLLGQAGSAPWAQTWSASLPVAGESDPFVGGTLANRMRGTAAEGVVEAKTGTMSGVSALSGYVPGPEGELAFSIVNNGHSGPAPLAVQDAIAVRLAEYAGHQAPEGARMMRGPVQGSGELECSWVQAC

O=C1C=C2CC(C(=O)O)NC=C2C=C1O (stereo not drawn) [inhibitor, 7-hydroxy-6-oxo-2,3,4,6-tetrahydroisochinolin-3-carboxylic acid]
IC50 [1]: 0.00045 M
IC50 [2]: 0.000675 M
life of the inhibitor-DD-peptidase R 39 complex [3]: 3.5 h
life of the inhibitor-DD-peptidase R 61 complex [4]: about 33 hours
inhibition of class A β-lactamase [5]: did not inhibit
stability of DD-peptidase inhibitory activity in the presence of class A β-lactamase ([6]; 24 h incubation in β-lactamase at room temperature): completely stable
stability in a β-lactamase environment ([6]; initial incubation with β-lactamase, then DD-peptidase 64-575 II inhibition): stable in a β-lactamase environment
MIC [7]: > 200 µg/mL
MIC [8]: 200 µg/mL (≈ 965 µM)
MIC [9]: > 200 µg/mL
MIC [10]: > 200 µg/mL
MIC [11]: > 200 µg/mL
MIC [12]: > 200 µg/mL
MIC [13]: > 200 µg/mL
MIC [14]: 200 µg/mL (≈ 965 µM)
MIC [15]: > 200 µg/mL
MIC [16]: > 200 µg/mL
MIC [17]: 200 µg/mL (≈ 965 µM)
zone of inhibition at 400 µg/disc ([18]; after 15 h): 19 mm
zone of inhibition at 400 µg/disc ([18]; after 18 h): 19 mm
zone of inhibition at 400 µg/disc ([19]; after 15 h): 20 mm
zone of inhibition at 400 µg/disc ([19]; after 18 h): 19 mm
zone of inhibition at 400 µg/disc ([20]; after 15 h): 16 mm
zone of inhibition at 400 µg/disc ([20]; after 18 h): 15 mm
antifungal activity against Candida albicans ATCC 10231 [21]: does not exhibit antifungal activity
solubility in PBS pH 7.2-8.0 ([22]; PBS pH 7.2-8.0): soluble
solubility in an aqueous environment with low levels of K+, Na+ ([22]; aqueous, low levels of K+, Na+): soluble
solubility in ethyl acetate, methylene chloride, chloroform, amyl acetate, acetonitrile ([22]; ethyl acetate, methylene chloride, chloroform, amyl acetate, acetonitrile): not soluble
solubility in methanol, DMSO ([22]; methanol, DMSO): dissolves
stability in methanol, DMSO ([22]; methanol, DMSO): degrades
